Each structure is given as a SMILES string. Marks after values point to notes of the source that are not given here.

The target in one assay is T1, rat FAAH (Rattus norvegicus, UniProt P97612).
T1 construct: made in house; host or cells: E. coli
T1 sequence (P97612 1-579): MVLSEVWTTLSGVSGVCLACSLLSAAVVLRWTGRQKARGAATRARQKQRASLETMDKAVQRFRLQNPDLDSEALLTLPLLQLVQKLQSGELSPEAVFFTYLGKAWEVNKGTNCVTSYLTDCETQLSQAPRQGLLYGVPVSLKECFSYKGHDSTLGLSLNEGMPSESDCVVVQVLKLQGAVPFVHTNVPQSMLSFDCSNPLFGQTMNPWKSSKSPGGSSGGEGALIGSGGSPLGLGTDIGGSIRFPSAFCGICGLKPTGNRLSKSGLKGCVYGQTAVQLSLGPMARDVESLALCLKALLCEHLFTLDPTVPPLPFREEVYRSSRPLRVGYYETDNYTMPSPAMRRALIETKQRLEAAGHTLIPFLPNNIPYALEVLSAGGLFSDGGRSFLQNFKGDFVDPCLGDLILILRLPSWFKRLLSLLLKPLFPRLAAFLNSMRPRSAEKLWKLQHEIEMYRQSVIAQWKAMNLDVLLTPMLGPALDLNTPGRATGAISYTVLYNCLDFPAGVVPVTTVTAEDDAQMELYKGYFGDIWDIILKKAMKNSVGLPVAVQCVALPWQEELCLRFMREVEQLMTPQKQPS
Put plainly: FAAH assay, rat FAAH enzyme inactivation (kinact/Ki). Format: biochemical. Conditions: oleamide 50 μM, 30° C.; for rFAAH kinact/Ki: in vitro, pH 7.4; for kinact/KI: pH 7.4, in vitro, read-out: rFAAH kinact/Ki. In short, it runs like this:
(§1)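 Oleamide hydrolysis by 1-4 nM purified E. coli-expressed FAAH (substrate 50 μM = Km) coupled to GDH/NADH, pH 7.4 phosphate, 7.5% DMSO and EtOH, 30° C; A340 followed 90 min. kobs from mono-exponential fits; kinact/Ki from kobs-versus-concentration slope, multiplied by two.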

For a further assay, the target named is T2, human FAAH (Homo sapiens, UniProt O00519).
T2 construct: made in house; host or cells: E. coli
T2 sequence (O00519 1-579): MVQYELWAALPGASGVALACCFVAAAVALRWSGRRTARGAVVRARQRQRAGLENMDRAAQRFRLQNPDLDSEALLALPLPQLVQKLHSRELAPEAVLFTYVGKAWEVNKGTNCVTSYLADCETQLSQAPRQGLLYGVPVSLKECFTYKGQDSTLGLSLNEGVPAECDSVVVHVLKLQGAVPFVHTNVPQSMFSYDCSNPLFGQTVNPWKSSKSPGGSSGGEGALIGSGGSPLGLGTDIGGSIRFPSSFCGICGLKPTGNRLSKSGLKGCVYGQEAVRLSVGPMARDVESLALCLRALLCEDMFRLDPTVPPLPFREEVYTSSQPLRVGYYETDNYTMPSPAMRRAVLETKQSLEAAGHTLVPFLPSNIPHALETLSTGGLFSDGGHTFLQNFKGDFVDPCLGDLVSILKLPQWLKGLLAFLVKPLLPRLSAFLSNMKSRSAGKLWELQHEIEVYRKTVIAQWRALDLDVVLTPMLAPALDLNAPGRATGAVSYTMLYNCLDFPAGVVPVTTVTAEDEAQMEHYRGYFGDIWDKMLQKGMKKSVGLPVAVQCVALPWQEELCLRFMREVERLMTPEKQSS
Put plainly: FAAH assay, human FAAH enzyme inactivation (kinact/Ki). Format: biochemical. Conditions: oleamide 50 μM, 30° C.; for hFAAH kinact/Ki: in vitro, pH 7.4; for kinact/KI: pH 7.4, in vitro, read-out: hFAAH kinact/Ki. In a few lines:
as §1

In another assay the test system is Male Sprague-Dawley Rats. As to the kind of experiment: In vivo Complete Freund's Adjuvant (CFA) efficacy assay, inhibition of allodynia. The arrangement: species or system rat; key: (+) indicates the test compound was determined to be efficacious at 3 mpk, oral dosing; (−) indicates the test compound was determined to not be efficacious at 3 mpk, oral dosing. The following applies: p < 0.05 vs vehicle group. As for the experimental part:
For additional information on the CFA efficacy assay, see Jayamanne et al., Brit. J. Pharmacol. 2006, 147, 281-288. Experiments were performed on adult Male Sprague-Dawley Rats (200 g-250 g). Inflammation was induced in the left hindpaw of the rat by an intra-plantar injection of 150 uL Complete Freund's Adjuvant (CFA) (SIGMA F5881). The CFA injection immediately induces local inflammation, paw swelling, and pain that persists for at least two weeks post-injection. Baseline paw withdrawal threshold (PWT) was measured to determine the percent inhibition of allodynia using a set of Von Frey Hairs on day 4 post injection as illustrated by the Dixon Up and Down Method (W. J. Dixon, Ann. Rev. Pharmacol. Toxicol. 1980, 20:441-462). […] Following Dose administration PWT threshold was evaluated again at four hours postdose. The Sprague-Dawley rats used in this assay were purchased from Harlan, 8520 Allison Pointe Blvd., Indianapolis, Ind., 46250, U.S.A. Sprague-Dawley rats are an outbred breed of albino rats first produced by the Sprague Dawley farms in Madison, Wis., U.S.A.
Percent Inhibition of Allodynia was determined by the formula: […]
ΔPWT measurements were averaged for each treatment group and statistical comparisons between groups were made using ANOVA and Dunnett's two-tailed test. […]

The mark [1] stands for this setting: 3 mpk, oral dosing, PWT four hours postdose.

For `Cn1nnnc1NC(=O)N1CCC2(CC1)CC(c1cccc(OC(F)(F)F)c1)CO2` (single isomer, unassigned) [Example 78, N-(1-methyl-1H-tetrazol-5-yl)-3-[3-(trifluoromethoxy)phenyl]-1-oxa-8-azaspiro[4.5]decane-8-carboxamide], the “rFAAH kinact/Ki” value at rat FAAH turned out to be 3840 M⁻¹ s⁻¹. Further, the “hFAAH kinact/Ki” value on human FAAH came to 7100 M⁻¹ s⁻¹. Besides, the “CFA Efficacy” value in the assay on Male Sprague-Dawley Rats (setting [1]) is “(+)”.
For `Cn1nnnc1NC(=O)N1CCC2(CC1)CC(c1cccc(Cl)c1)CO2` (single isomer, unassigned) [Example 79, 3-(3-chlorophenyl)-N-(1-methyl-1H-tetrazol-5-yl)-1-oxa-8-azaspiro[4.5]decane-8-carboxamide], on rat FAAH, the “rFAAH kinact/Ki” value worked out at 1970 M⁻¹ s⁻¹. The “hFAAH kinact/Ki” value at human FAAH amounted to 5600 M⁻¹ s⁻¹. For the same molecule, in the assay with Male Sprague-Dawley Rats (setting [1]), the “CFA Efficacy” value is given as “(+)”.
Take `Cn1nnnc1NC(=O)N1CCC2(CC1)CC(c1cccc(Cl)c1)CO2` (single isomer, unassigned) [Example 80, 3-(3-chlorophenyl)-N-(1-methyl-1H-tetrazol-5-yl)-1-oxa-8-azaspiro[4.5]decane-8-carboxamide]: on rat FAAH, the “rFAAH kinact/Ki” value came out at 5520 M⁻¹ s⁻¹. Moreover, the “hFAAH kinact/Ki” value at human FAAH turned out to be 11400 M⁻¹ s⁻¹. Moreover, in the assay on Male Sprague-Dawley Rats (setting [1]), the “CFA Efficacy” value is on record as “(+)”.
For the molecule `Cn1nnnc1NC(=O)N1CCC2(CC1)CC(c1noc(-c3ccc(C(F)(F)F)cc3)n1)CO2` (single isomer, unassigned) [Example 82, N-(1-methyl-1H-tetrazol-5-yl)-3-{5-[4-(trifluoromethyl)phenyl]-1,2,4-oxadiazol-3-yl}-1-oxa-8-azaspiro[4.5]decane-8-carboxamide], the kinact/KI at rat FAAH is 1500 M⁻¹ s⁻¹; on human FAAH, 5110 M⁻¹ s⁻¹. For the same molecule, the “CFA Efficacy” value in the assay with Male Sprague-Dawley Rats (setting [1]) was “(+)”.
In the case of `Cn1nnnc1NC(=O)N1CCC2(CC1)CC(c1noc(-c3ccc(C(F)(F)F)cc3)n1)CO2` (single isomer, unassigned) [Example 83, N-(1-methyl-1H-tetrazol-5-yl)-3-{5-[4-(trifluoromethyl)phenyl]-1,2,4-oxadiazol-3-yl}-1-oxa-8-azaspiro[4.5]decane-8-carboxamide], the “rFAAH kinact/Ki” value at rat FAAH was determined as 974 M⁻¹ s⁻¹. Moreover, the “hFAAH kinact/Ki” value on human FAAH was found to be 5480 M⁻¹ s⁻¹. Moreover, the “CFA Efficacy” value in the assay with Male Sprague-Dawley Rats (setting [1]) is “(+)”.
On to `Cn1nnnc1NC(=O)N1CCC2(CC1)CC(c1noc(-c3ccc(OC(F)(F)F)cc3)n1)CO2` (single isomer, unassigned) [Example 84, N-(1-methyl-1H-tetrazol-5-yl)-3-{5-[4-(trifluoromethoxy)phenyl]-1,2,4-oxadiazol-3-yl}-1-oxa-8-azaspiro[4.5]decane-8-carboxamide], for which the kinact/KI at rat FAAH is 1500 M⁻¹ s⁻¹; on human FAAH, 8420 M⁻¹ s⁻¹. Further, the “CFA Efficacy” value in the assay on Male Sprague-Dawley Rats (setting [1]) was “(+)”.
Take `Cn1nnnc1NC(=O)N1CCC2(CC1)CC(c1noc(-c3ccc(OC(F)(F)F)cc3)n1)CO2` (single isomer, unassigned) [Example 85, N-(1-methyl-1H-tetrazol-5-yl)-3-{5-[4-(trifluoromethoxy)phenyl]-1,2,4-oxadiazol-3-yl}-1-oxa-8-azaspiro[4.5]decane-8-carboxamide]: the “rFAAH kinact/Ki” value on rat FAAH worked out at 1340 M⁻¹ s⁻¹. In addition, on human FAAH, the “hFAAH kinact/Ki” value is 5980 M⁻¹ s⁻¹. Also, the “CFA Efficacy” value with Male Sprague-Dawley Rats (setting [1]) is listed as “(+)”.
Regarding `Cn1nnnc1NC(=O)N1CCC2(CC1)CC(c1cccc(C(F)(F)F)c1)CO2` (single isomer, unassigned) [Example 93, N-(1-methyl-1H-tetrazol-5-yl)-3-[3-(trifluoromethyl)phenyl]-1-oxa-8-azaspiro[4.5]decane-8-carboxamide], the kinact/KI amounted to 2160 M⁻¹ s⁻¹ on rat FAAH and 4600 M⁻¹ s⁻¹ at human FAAH. In addition, the “CFA Efficacy” value with Male Sprague-Dawley Rats (setting [1]) was “(+)”.
`Cn1nnnc1NC(=O)N1CCC2(CC1)CC(c1cccc(C(F)(F)F)c1)CO2` (single isomer, unassigned) [Example 94, N-(1-methyl-1H-tetrazol-5-yl)-3-[3-(trifluoromethyl)phenyl]-1-oxa-8-azaspiro[4.5]decane-8-carboxamid]: the “rFAAH kinact/Ki” value at rat FAAH worked out at 2110 M⁻¹ s⁻¹. In addition, the “hFAAH kinact/Ki” value on human FAAH stood at 3760 M⁻¹ s⁻¹. Moreover, in the assay with Male Sprague-Dawley Rats (setting [1]), the “CFA Efficacy” value was “(+)”.
With `O=C(Nc1cccnn1)N1CCC2(CC1)C[C@@H](c1cccc(Oc3ccc(C(F)(F)F)cn3)c1)CO2` [Example 2, (3S)—N-pyridazin-3-yl-3-(3-{[5-(trifluoromethyl)pyridin-2-yl]oxy}phenyl)-1-oxa-8-azaspiro[4.5]decane-8-carboxamide], the kinact/KI came to 1130 M⁻¹ s⁻¹ at rat FAAH and 1340 M⁻¹ s⁻¹ at human FAAH. Besides, the “CFA Efficacy” value in the assay with Male Sprague-Dawley Rats (10 mpk, intraperitoneal dosing) is “(−)^c”.
In the same order, the values of `O=C(Nc1cccnn1)N1CCC2(CC1)C[C@H](c1cccc(Oc3ccc(C(F)(F)F)cn3)c1)CO2` [Example 3, (3R)—N-pyridazin-3-yl-3-(3-{[5-(trifluoromethyl)pyridin-2-yl]oxy}phenyl)-1-oxa-8-azaspiro[4.5]decane-8-carboxamide] are 2240 M⁻¹ s⁻¹, 3040 M⁻¹ s⁻¹ and “(−)^c”.
Turning to `O=C(Nc1cccnc1)N1CCC2(CC1)C[C@H](c1cccc(Oc3ccc(Br)cn3)c1)CO2` [Example 7, (3R)-3-{3-[(5-bromopyridin-2-yl)oxy]phenyl}-N-pyridin-3-yl-1-oxa-8-azaspiro[4.5]decane-8-carboxamide], the kinact/KI at rat FAAH was 526 M⁻¹ s⁻¹; on human FAAH it was 2890 M⁻¹ s⁻¹. In the assay with Male Sprague-Dawley Rats (setting [1]), the “CFA Efficacy” value is “(+)”.
The matching figures for `O=C(Nc1cccnc1)N1CCC2(CC1)C[C@@H](c1cccc(Oc3ccc(Br)cn3)c1)CO2` [Example 8]: 3520 M⁻¹ s⁻¹, 1950 M⁻¹ s⁻¹ and “(+)”.
In the same order, the values of `O=C(Nc1cccnn1)N1CCC2(CC1)C[C@H](c1cccc(Oc3ccc(Br)cn3)c1)CO2` [Example 9, (3R)-3-{3-[(5-bromopyridin-2-yl)oxy]phenyl}-N-pyridazin-3-yl-1-oxa-8-azaspiro[4.5]decane-8-carboxamide] are 3340 M⁻¹ s⁻¹, 4970 M⁻¹ s⁻¹ and “(+)”.
For the molecule `O=C(Nc1cccnn1)N1CCC2(CC1)C[C@@H](c1cccc(Oc3ccc(Br)cn3)c1)CO2` [Example 10, (3S)-3-{3-[(5-bromopyridin-2-yl)oxy]phenyl}-N-pyridazin-3-yl-1-oxa-8-azaspiro[4.5]decane-8-carboxamide], the results for the kinact/KI on rat FAAH and on human FAAH were 5890 M⁻¹ s⁻¹ and 2690 M⁻¹ s⁻¹, respectively. Besides, the “CFA Efficacy” value in the assay with Male Sprague-Dawley Rats (setting [1]) is “(+)”.
With `O=C(Nc1cccnn1)N1CCC2(CC1)C[C@H](c1cccc(Oc3ccc(Cl)cn3)c1)CO2` [Example 11, (3R)-3-{3-[(5-chloropyridin-2-yl)oxy]phenyl}-N-pyridazin-3-yl-1-oxa-8-azaspiro[4.5]decane-8-carboxamide], the kinact/KI was 1020 M⁻¹ s⁻¹ at rat FAAH and 2420 M⁻¹ s⁻¹ on human FAAH. Further, the “CFA Efficacy” value in the assay with Male Sprague-Dawley Rats (setting [1]) is on record as “(+)”.

The record behind these values is patent US20110230493A1, “1-OXA-8-Azaspiro [4,5] Decabe-8-Carboxamide Compounds as FAAH Inhibitors” (Pfizer Inc., priority 2008, published 2011).
